The test system of assay [1] is HEL cells (human lung fibroblast, normal). The assay is described as follows: MTT cytotoxicity assay, HEL. It is filed as cell-based. As to conditions: 72 h.
Method: (§1) The cytotoxicity study of the prepared copper(II) complexes was performed using the MTT assay on human cell lines—A549 (adenocarcinoma human alveolar basal epithelial cell line), HepG2 (human liver cancer cell line) and HEL (human lung fibroblast cell line, normal cells).
(§2) The cytotoxicity of the prepared copper(II) complexes in human cell lines was evaluated using the 3-(4,5-dimethylthiazol-2-yl)-2,5-diphenyltetrazolium bromide (MTT) assay following the protocol by Mosmann. Briefly, A549 (human lung epithelial cells, carcinoma), HepG2 (human liver epithelial cells, carcinoma) and HEL (human lung fibroblast cells, normal) cells were seeded in plastic 96-well plates at a density of 1.5–2 × 10^4 cells per well. […] After the treatment, the samples were washed with phosphate-buffered saline (PBS), followed by 4 h of incubation with 1 mg/mL of MTT. Subsequently, the MTT solution was removed, and the formed formazane solids were dissolved in dimethyl sulfoxide for 30 min. The photometric evaluation (at 540 nm and 690 nm) was carried out using an xMark™ Microplate Absorbance Spectrophotometer (Bio-Rad, Hercules, CA, USA) [88].
(§3) A549 (ATCC® CCL-185), HepG2 (ATCC® HB-8065) and HEL299 (ATCC® CCL-137) cells were obtained from Lambda Life (Bratislava, Slovakia). A549 cells were kept in Dulbecco’s Modified Eagle’s Medium (DMEM) supplemented with 10% fetal bovine serum (FBS) and 1% antibiotics (penicillin and streptomycin). HepG2 cells were kept in Williams medium supplemented with 10% fetal bovine serum (FBS) and 1% antibiotics (penicillin and streptomycin). HEL299 cells were kept in Minimum Essential Medium (MEM) supplemented with 10% fetal bovine serum (FBS), 1% antibiotics (penicillin and streptomycin) and 1% non-essential amino acids (NEAA). The cells were cultured in a humidified atmosphere of 5% CO2 at 37 °C. Once the cells reached approximately 80% confluence, they were harvested and subcultured after trypsin treatment.
Another assay relates to HepG2 cells. The assay is described as follows: MTT cytotoxicity assay, HepG2. It is filed as cell-based, human. As to conditions: 72 h.
The subject of the next assay is A549 cells. The assay is described as follows: MTT cytotoxicity assay, A549. In kind it is cell-based, human. As to conditions: 72 h.
Assay [2] can be described thus: SOD mimetic activity / radical scavenging assay (INT method). In kind it is biochemical. The protocol: The radical scavenging ability with respect to the SOD mimetic activity of the prepared complexes was determined by the INT method. This method is based on a competitive reaction with the superoxide anion radical from KO2 between the measured compound (complex) and 2-(4-Iodophenyl)-3-(4-nitrophenyl)-5-phenyl-2H-tetrazolium chloride (INT). INT reacts with the single electron of O2^− and produces blue-green formazane detected as light absorption at 500 nm. Complexes with good antiradical activity also react with O2^−, and as a result of this, less formazane is formed.
The first type of antiradical activity measurements involved the determination of inhibition percent values of electron transfer on INT at specific concentrations (Table 9). Two concentrations were selected to achieve good solubility of the complexes (4 and 1 mM for 4a and 4c, 2 and 1 mM for 4b). The complex 4b dissolved readily at a concentration of 4 mM, but the mixture was very dark, making measurements at 500 nm difficult. Therefore, a less concentrated initial solution was used (2 mM) as the higher concentration. In total, 0.5 mL of the initial solutions was used to prepare sample solutions that also contained INT and KO2 solutions and DMSO with an overall volume of 3.5 mL. The resulting concentrations were c1 = 0.572 mM, c1* = 0.286 mM and c2 = 0.143 mM, respectively. Complexes 4a and 4c once again provided high percentages at c1 (approximately 96–99%) but the activity dropped below 24% at c2, while complex 4b maintained mediocre activity at both concentrations. It seems that the concentration increase had only a small effect on the activity of 4b; something similar was also observed in the DNA cleavage study for complex 4b. The complexes were compared with the model compound cystamine, which was used as a standard for superoxide antiradical scavenging due to the presence of a free […] group, which is also present in glutathione.
To improve the comparability of SOD mimetic activity, IC50 concentrations were determined by performing a series of measurements with decreasing concentration. IC50 values were calculated from the trend function equation as the concentration with 50% inhibition of electron transfer on INT (Table 10).
The method is based on the agent 2-(4-Iodophenyl)-3-(4-nitrophenyl)-5-phenyl-2H-tetrazolium chloride (INT), able to scavenge a superoxide radical anion from KO2. The reaction produces a blue-green formazane, which is detected as light absorption at 500 nm. The radical scavengers (measured complexes) compete with INT for radicals and reduce the formation of formazane and light absorption at 500 nm. Antiradical activity was measured on a Synergy HT BioTek spectrophotometer. DMSO was used as the solvent for the complex and KO2 (saturated solution). The INT initial solution (4 M) was prepared in a sodium tetraborate buffer solution with pH adjusted to 7.1 with HCl.
For each measurement, an initial solution of the sample (0.5 mL) of a specific concentration (4–0.1 mM) was prepared in DMSO. Due to the addition of INT (0.5 mL) and KO2 (0.5 mL) solutions and additional DMSO (2 mL), the concentrations of the measured complexes decreased seven times (3.5 mL of total mixture). Each result was the average value of three parallel measurements expressed with a standard deviation (more information in the Supplementary Materials). For the determination of SOD-IC50, several measurements with decreasing sample concentration were performed. […] A linear trend function of the percentage of inhibition and negative logarithm of concentration was used to calculate the SOD-IC50 value as the concentration with 50% inhibition of INT–formazane formation. […]
Green: 5c 5 mM (S. cerevisiae 1x10^9 cells /ml + 0.5 ml 0.9% NaCl + 0.5 ml 5c + 0.1 ml Resazurin OX) measured in time
S6. SOD Mimetic A ctivity A ssay
For each measurement, an initial solution of the sample of a specific concentration was prepared […]

SMILES strings stand for the structures. Like-named read-outs stand apart in the source and are kept apart here.

Method for A549 cells: as §1, §2, §3
Method for HepG2 cells: as §1, §2, §3

`N.N.[Cl][Pt][Cl]` [cisplatin, reference compound]: the figures for the IC50 (in assay [1]; in the assay on HepG2 cells; in the assay on A549 cells) were 68.4 ± 0.3 µM, 16 ± 3.4 µM and 26.2 ± 4.1 µM, respectively.

Turning to `NCCSSCCN` [cystamine, reference compound], the IC50 in assay [2] (50% inhibition of electron transfer on INT, read-out: SOD-IC50) is 1700 ± 100 µM; in assay [2] (INT method, read-out: concentration of 50% inhibition (SOD-IC50), given as range), above 1000 µM. In addition, the “Activity at c1 (%), inhibition of radical transfer to INT” value in assay [2] (c1 = 0.572 mM) came out at 22.1 ± 1.8%. Also, in assay [2] (c2 = 0.143 mM), the “Activity at c2 (%), inhibition of radical transfer to INT” value turned out to be 2.0 ± 0.0%.

These data come from publication PMC12430429, “Synthesis, Structure, DNA/BSA Binding, DNA Cleaving, Cytotoxic and SOD Mimetic Activities of Copper(II) Complexes Derived from Methoxybenzylamine Schiff Base Ligands” (Molecules, 2025).
